Key:
[1] = Selectivity index, ratio of CC50 for mouse J774.G8 cells to IC50 for epimastigotes of Trypanosoma cruzi Y; type: functional
[2] = Selectivity index, ratio of CC50 for monkey LLC-MK2 cells to IC50 for epimastigotes of Trypanosoma cruzi Y; type: functional
Trypanosoma cruzi = test: Antitrypanosomal activity against epimastigotes of Trypanosoma cruzi Y after 96 hrs by Neubauer haemocytometer; type: functional, organism-based

Compound	Selectivity Index [1]	Selectivity Index [2]	IC50 (Trypanosoma cruzi) [µM]
COC(=O)[C@@H]1Cc2c([nH]c3ccccc23)[C@@H](c2cccc([N+](=O)[O-])c2)N1 (relative stereo)	35.7	25.6	22.2
COC(=O)[C@@H]1Cc2c([nH]c3ccccc23)[C@H](c2ccc([N+](=O)[O-])cc2)N1 (relative stereo)	–	–	42.7
COC(=O)[C@@H]1Cc2c([nH]c3ccccc23)[C@@H](c2ccc([N+](=O)[O-])cc2)N1 (relative stereo)	–	–	> 100
COC(=O)[C@@H]1Cc2c([nH]c3ccccc23)[C@H](c2cccc([N+](=O)[O-])c2)N1 (relative stereo)	–	–	93.5
